One assay has as its system human platelets. As to the kind of experiment: Light transmission aggregometry of collagen-stimulated human platelet-rich plasma. The following applies: human PRP, FIG. 2, 3. It counts as cell-based. How it is done:
Anti-platelet activity of compounds of invention was assessed using light transmission aggregometry assay of human platelet-rich plasma (PRP). Venous blood was obtained from male volunteers at the University Hospital Blood Bank Centre. Volunteer donors had not taken any medicines for the preceding two weeks. Blood was collected into vials containing sodium citrate (3.2%, 9:1 v/v) as an anti-coagulant agent. To obtain platelet rich plasma (PRP), blood was centrifuged at 260×g for 15 min. The platelet […] plasma fraction (used as a blank sample) was obtained by centrifugation of the remaining blood for 10 min at 2600×g. Aggregation of blood platelets was assessed in PRP with a dual channel Chronolog aggregometer (CHRONO-LOG) using a method previously described by Born^35. PRP (500 μl) was equilibrated for 2 min at 37° C. with a continuous stirring at 800 rpm and then stimulated with collagen to cause aggregation. At the beginning of each experiment, concentrations of collagen that induced sub-maximum aggregation response were determined. These concentrations were in the range of […], respectively. All the tested compounds were added 2 min prior to stimulation of platelets with collagen. Transmittance was read 6 min after stimulation of platelets with an agonist. […]

The test system of the next assay is MDA-MB-231. As to the kind of experiment: MTT antiproliferative assay, 72 h, with or without estradiol, MDA-MB-231. It counts as cell-based, human. How it is done: Anticancer activity of selected compounds of invention, PDI A3-inhibitors has been also tested in vitro in antiproliferative assay in normoxic and hypoxic conditions as well in estrogen-stimulated cancer cells. In the experiment, cells were seeded on 96-well plates (Sarstedt, Germany) in appropriate culture medium at a density of 10^5 cells/mL 24 h before adding the tested compounds. Cells were treated with each compound in four concentrations in the range 0.1-100 μg/mL. […] After 72 h of compound treatment at 37° C., 5% CO2 humid atmosphere and in wo different oxygen level conditions: 21%—normal and <1%—hypoxia. In some experiments the MDA-MB-231 and MCF-7 cells were seeded with or without 200 nM estradiol and after 24 h the tested compounds were added. A previously described sulforhodamine B antiproliferative assay was used with minor modifications (Skehan P et al., 1990). Briefly, cells were fixed with 50 μL/well of 50% (w/v) trichloroacetic acid (Avantor Performance Materials, Gliwice, Poland). After 1 h incubation, plates were washed several times with tap water and 50 μL of 0.4% (w/v) solution of sulforhodamine B (Sigma-Aldrich, Germany) in 1% (v/v) acetic acid (Avantor Performance Materials, Gliwice, Poland) was added to each well. After 30 min incubation at room temperature, unbound dye was washed out with 1% (v/v) acetic acid, whereas bound dye was solubilized with 10 mM unbuffered TRIS (Avantor Performance Materials, Gliwice, Poland) solution. The entire procedure was performed using a BioTek EL-406 washing station (BioTek Instruments, USA). After additional 30 min, absorbance was read using a Biotek Hybrid H4 reader (BioTek Instruments, USA) at 540 nm wavelength. MTT assay was used alternatively for HL-60 cell line and in the experiment in which estrogens are added (specified in the table legend). Absorbance was measured using a Biotek Hybrid H4 reader at 570 nm wavelength for MTT assay.
Compounds at each concentration were tested in triplicate in a single experiment and each experiment was repeated at least three times independently. Results are presented as mean IC50±SD.

For assay [1], the system named is MDA-MB-231 cell transmigration across IL-1β-stimulated hLMVECs. As to the kind of experiment: Transendothelial migration of MDA-MB-231 cells across hLMVEC monolayer. The assay is classed as cell-based, human. Conditions: IL-1β 10 ng/mL (6 hours)-stimulated hLMVECs, 24 h co-culture, FIG. 6. How it is done:
To assess whether compounds of invention, PDI A3-inhibitors are also effective as inhibitors of cancer cell transmigration through endothelium the transmigration assay with MDA-MB-231/lung microvascular endothelium was used as described previously (Stojak et al., 2018). Cell migration was assayed in 24-well, 6.5-mm internal-diameter Transwell plates (8.0 μm pore size; BD Pharmingen). Human lung microvascular endothelial cells (hLMVECs) were seeded into 24-well plates (seeding density 5×10^4 cells/insert) on the upper side of the filter and left to grow to confluence. After confluent monolayer formation, hLMVECs were pre-treated with 10 ng/mL IL-1β for 6 h. Prior to use in transmigration assay, cancer cells were pre-incubated with various concentrations (3, 10, 30, 50, 100 μM) of tested inhibitors of PDIA3, C-3390, C-3399 for 30 min. Then, MDA-MB-231 cells (each 5×10^4 per well) were placed into upper chambers and tested PDI inhibitors at various concentrations (1, 10, 30, 50, 100 μM) were given. Lower chambers were filled with medium containing chemoattractant (20% FBS or 100 ng/mL SDF-1α). After 24 h of co-culture, hLMVEC monolayers and non-migrating cancer cells on the upper surface of the membrane were removed. […] The cell number was determined by measuring the fluorescence using plate reader. […]

Converted amounts (≈) assume the structure as drawn.

Regarding `COC(=O)C1CN1S(=O)(=O)c1ccc2c(C=O)c(N(C)C)ccc2c1` (centres unmarked) [Compound C-3390, Methyl 1-[[6-(dimethylamino)-5-formyl-2-naphthyl]sulfonyl]aziridine-2-calboxylate], in the assay with human platelets, the “Inhibition of platelet aggregation” value is given as “lowest EC50”. Besides, in the assay on MDA-MB-231 (estradiol (200 nM), Table 4), the “Sensitivity of MDA-MB-231 line after treatment with estradiol” value is “slightly lower sensitivity”. Further, the “IC50 [μg/ml] MDA-MB-231 normal” value in the assay on MDA-MB-231 (not pretreated with estradiol, 72 hours exposition, MTT) stood at 3.2 ± 0.2 µg/mL (≈ 8.83 µM). The “IC50 [μg/ml] MDA-MB-231 +estradiol” value with MDA-MB-231 (pretreated with 200 nM estradiol, 72 hours exposition, MTT) turned out to be 9.4 ± 3.5 µg/mL (≈ 25.9 µM). The “Inhibition of MDA-MB-231 cell transmigration” value in assay [1] is “inhibited MDA-MB-231 cell transmigration”.
